In PubChem BioAssay AID194 (DTP/NCI, 2004):
Where “and” joins values, the source holds several entries; their conditions need not be identical. Identical values can stand only once. Inconclusive results are not listed.

Tested on: BDF1 mice, B16 melanoma s.c., survival/tumor T/C
Experiment: NCI In Vivo Anticancer Drug Screen. Data for tumor model B16 Melanoma (subcutaneous) in B6D2F1 (BDF1) mice
Description: The antitumor activity of compounds was measured in mice bearing transplantable tumors. Survival or tumor size were measured and the results are expressed as the measurement made in the treated group (T) divided by the measurement made in the vehicle treated control group (C). The tumor model used in this assay is B16 Melanoma (subcutaneous) in B6D2F1 (BDF1) mice

[1] = endpoint: median survival time, dose: 23.0 mg/kg/injection, schedule: Q01DX009 (ip), vehicle: saline, higher = longer survival
[2] = endpoint: median survival time, dose: 108.0 mg/kg/injection, schedule: Q04DX003 (ip), vehicle: saline, higher = longer survival

## O=c1[nH]cc(F)c(=O)[nH]1
endpoint: median survival time, dose: 5.0 mg/kg/injection, schedule: Q01DX009 (ip), vehicle: saline, higher = longer survival
  T/C: 77 % of control
endpoint: median survival time, dose: 8.4 mg/kg/injection, schedule: Q01DX009 (ip), vehicle: saline, higher = longer survival
  T/C: 100 % of control
endpoint: median survival time, dose: 10.0 mg/kg/injection, schedule: Q01DX009 (ip), vehicle: Klucel (hydroxypropylcellulose) (HPC), higher = longer survival
  T/C: 100 % of control
endpoint: median survival time, dose: 10.0 mg/kg/injection, schedule: Q01DX009 (ip), vehicle: saline with Tween-80, higher = longer survival
  T/C: 98 % of control and 101 % of control
endpoint: median survival time, dose: 14.0 mg/kg/injection, schedule: Q01DX009 (ip), vehicle: saline, higher = longer survival
  T/C: 97 % of control
endpoint: median survival time, dose: 20.0 mg/kg/injection, schedule: Q01DX009 (ip), vehicle: Klucel (hydroxypropylcellulose) (HPC), higher = longer survival
  T/C: 100 % of control
endpoint: median survival time, dose: 20.0 mg/kg/injection, schedule: Q01DX009 (ip), vehicle: saline with Tween-80, higher = longer survival
  T/C: 111 % of control
[1]
  T/C: 107 % of control
endpoint: median survival time, dose: 23.0 mg/kg/injection, schedule: Q04DX003 (ip), vehicle: saline, higher = longer survival
  T/C: 100 % of control
endpoint: median survival time, dose: 39.0 mg/kg/injection, schedule: Q04DX003 (ip), vehicle: saline, higher = longer survival
  T/C: 97 % of control
endpoint: median survival time, dose: 40.0 mg/kg/injection, schedule: Q01DX009 (ip), vehicle: saline with Tween-80, higher = longer survival
  T/C: 98 % of control and 107 % of control
endpoint: median survival time, dose: 50.0 mg/kg/injection, schedule: Q04DX003 (ip), vehicle: saline, higher = longer survival
  T/C: 113 % of control
endpoint: median survival time, dose: 65.0 mg/kg/injection, schedule: Q04DX003 (ip), vehicle: saline, higher = longer survival
  T/C: 86 % of control
[2]
  T/C: 107 % of control
endpoint: median tumor weight (est.), dose: 10.0 mg/kg/injection, schedule: Q01DX009 (ip), vehicle: Klucel (hydroxypropylcellulose) (HPC), higher = larger tumour
  T/C: 97 % of control and 84 % of control
endpoint: median tumor weight (est.), dose: 10.0 mg/kg/injection, schedule: Q01DX009 (ip), vehicle: saline with Tween-80, higher = larger tumour
  T/C: 65 % of control
endpoint: median tumor weight (est.), dose: 20.0 mg/kg/injection, schedule: Q01DX009 (ip), vehicle: saline with Tween-80, higher = larger tumour
  T/C: 56 % of control
endpoint: median tumor weight (est.), dose: 40.0 mg/kg/injection, schedule: Q01DX009 (ip), vehicle: Klucel (hydroxypropylcellulose) (HPC), higher = larger tumour
  T/C: 75 % of control
endpoint: median tumor weight (est.), dose: 40.0 mg/kg/injection, schedule: Q01DX009 (ip), vehicle: saline with Tween-80, higher = larger tumour
  T/C: 39 % of control

## O=c1[nH]c(=O)n([C@H]2CCCO2)cc1F
[1]
  T/C: 101 % of control
endpoint: median survival time, dose: 39.0 mg/kg/injection, schedule: Q01DX009 (ip), vehicle: saline, higher = longer survival
  T/C: 100 % of control
endpoint: median survival time, dose: 65.0 mg/kg/injection, schedule: Q01DX009 (ip), vehicle: saline, higher = longer survival
  T/C: 100 % of control
[2]
  T/C: 118 % of control
endpoint: median survival time, dose: 180.0 mg/kg/injection, schedule: Q04DX003 (ip), vehicle: saline, higher = longer survival
  T/C: 107 % of control

## COc1cccc2c1C(=O)c1c(O)c3c(c(O)c1C2=O)C[C@@](O)(C(C)=O)C[C@@H]3OC1CC(N)C(O)C(C)O1 (stereo partly drawn)
endpoint: median survival time, dose: 0.12 mg/kg/injection, schedule: Q01DX009 (ip), vehicle: saline, higher = longer survival
  T/C: 87 % of control and 105 % of control
endpoint: median tumor weight (est.), dose: 0.12 mg/kg/injection, schedule: Q01DX009 (ip), vehicle: saline, higher = larger tumour
  T/C: 64 % of control
endpoint: median tumor weight (est.), dose: 0.25 mg/kg/injection, schedule: Q01DX009 (ip), vehicle: saline, higher = larger tumour
  T/C: 86 % of control and 100 % of control
endpoint: median tumor weight (est.), dose: 0.5 mg/kg/injection, schedule: Q01DX009 (ip), vehicle: saline, higher = larger tumour
  T/C: 55 % of control

## Cc1c2ccncc2c(C)c2c1[nH]c1ccccc12
endpoint: median survival time, dose: 25.0 mg/kg/injection, schedule: Q04DX003 (ip), vehicle: Klucel (hydroxypropylcellulose) (HPC), higher = longer survival
  T/C: 105 % of control
endpoint: median survival time, dose: 50.0 mg/kg/injection, schedule: Q04DX003 (ip), vehicle: Klucel (hydroxypropylcellulose) (HPC), higher = longer survival
  T/C: 98 % of control
endpoint: median survival time, dose: 82.0 mg/kg/injection, schedule: Q04DX003 (ip), vehicle: saline with Tween-80, higher = longer survival
  T/C: 122 % of control
endpoint: median survival time, dose: 400.0 mg/kg/injection, schedule: Q01DX001 (ip), vehicle: saline with Tween-80, higher = longer survival
  T/C: 112 % of control
endpoint: median survival time, dose: 900.0 mg/kg/injection, schedule: Q01DX001 (ip), vehicle: saline with Tween-80, higher = longer survival
  T/C: 114 % of control
